Experimental data reported in ChEMBL document CHEMBL2440076, “New triarylpyrazoles as broad-spectrum anticancer agents: design, synthesis, and biological evaluation” (Eur J Med Chem, 2013).

Tests used:
Type in all cases: functional
HL-60(TB) [1] = test: Growth inhibition of human HL-60(TB) cells assessed as cell growth at 5X10'-7 M after 48 hrs by sulforhodamine B assay; conditions: HL-60, 48 h, read-out: Activity
HOP-92 [2] = test: Growth inhibition of human HOP92 cells assessed as cell growth at 5X10'-5 M after 48 hrs by sulforhodamine B assay; conditions: HOP-92, 48 h, read-out: Activity
HL-60(TB) [3] = test: Growth inhibition of human HL-60(TB) cells assessed as cell growth at 5X10'-8 M after 48 hrs by sulforhodamine B assay; conditions: HL-60, 48 h, read-out: Activity
NCI-H322M [4] = test: Growth inhibition of human NCI-H322M cells assessed as cell growth at 5X10'-6 M after 48 hrs by sulforhodamine B assay; conditions: read-out: Activity
NCI-H522 = test: Growth inhibition of human NCI-H522 cells assessed as cell growth at 5X10'-9 M after 48 hrs by sulforhodamine B assay; conditions: NCI-H522, 48 h, read-out: Activity
SK-OV-3 = test: Growth inhibition of human SKOV3 cells assessed as cell growth at 5X10'-8 M after 48 hrs by sulforhodamine B assay; conditions: SK-OV-3, 48 h, read-out: Activity
K562 [5] = test: Growth inhibition of human K562 cells assessed as cell growth at 5X10'-9 M after 48 hrs by sulforhodamine B assay; conditions: K562, 48 h, read-out: Activity
A498 [6] = test: Growth inhibition of human A498 cells assessed as cell growth at 5X10'-6 M after 48 hrs by sulforhodamine B assay; conditions: A498, 48 h, read-out: Activity
HOP-92 [7] = test: Growth inhibition of human HOP92 cells assessed as cell growth at 5X10'-8 M after 48 hrs by sulforhodamine B assay; conditions: HOP-92, 48 h, read-out: Activity
U-251 = test: Growth inhibition of human U251 cells assessed as cell growth at 5X10'-6 M after 48 hrs by sulforhodamine B assay; conditions: U-251, 48 h, read-out: Activity
A498 [8] = test: Growth inhibition of human A498 cells assessed as cell growth at 5X10'-8 M after 48 hrs by sulforhodamine B assay; conditions: A498, 48 h, read-out: Activity
HCT-116 = test: Growth inhibition of human HCT116 cells assessed as cell growth at 5X10'-6 M after 48 hrs by sulforhodamine B assay; conditions: HCT-116, 48 h, read-out: Activity
K562 [9] = test: Growth inhibition of human K562 cells assessed as cell growth at 5X10'-6 M after 48 hrs by sulforhodamine B assay; conditions: K562, 48 h, read-out: Activity
[10] = Growth inhibition of human Hs 578T cells assessed as cell growth at 5X10'-8 M after 48 hrs by sulforhodamine B assay; conditions: read-out: Activity
PC-3 = test: Growth inhibition of human PC3 cells assessed as cell growth at 5X10'-9 M after 48 hrs by sulforhodamine B assay; conditions: PC-3, 48 h, read-out: Activity
M14 = test: Growth inhibition of human M14 cells assessed as cell growth at 5X10'-5 M after 48 hrs by sulforhodamine B assay; conditions: M14, 48 h, read-out: Activity
KM12 = test: Growth inhibition of human KM12 cells assessed as cell growth at 5X10'-6 M after 48 hrs by sulforhodamine B assay; conditions: KM12, 48 h, read-out: Activity
NCI-H322M [11] = test: Growth inhibition of human NCI-H322M cells assessed as cell growth at 5X10'-5 M after 48 hrs by sulforhodamine B assay; conditions: read-out: Activity
NCI-H226 = test: Growth inhibition of human NCI-H226 cells assessed as cell growth at 5X10'-8 M after 48 hrs by sulforhodamine B assay; conditions: NCI-H226, 48 h, read-out: Activity
ACHN = test: Growth inhibition of human ACHN cells assessed as cell growth at 5X10'-9 M after 48 hrs by sulforhodamine B assay; conditions: read-out: Activity
SF-539 = test: Growth inhibition of human SF539 cells assessed as cell growth at 5X10'-7 M after 48 hrs by sulforhodamine B assay; conditions: SF-539, 48 h, read-out: Activity
OVCAR-5 [12] = test: Growth inhibition of human OVCAR5 cells assessed as cell growth at 5X10'-6 M after 48 hrs by sulforhodamine B assay; conditions: OVCAR-5, 48 h, read-out: Activity
IGROV-1 = test: Growth inhibition of human IGROV1 cells assessed as cell growth at 5X10'-5 M after 48 hrs by sulforhodamine B assay; conditions: IGROV-1, 48 h, read-out: Activity
SR = test: Growth inhibition of human SR cells assessed as cell growth at 5X10'-8 M after 48 hrs by sulforhodamine B assay; conditions: read-out: Activity
HOP-92 [13] = test: Growth inhibition of human HOP92 cells assessed as cell growth at 5X10'-7 M after 48 hrs by sulforhodamine B assay; conditions: HOP-92, 48 h, read-out: Activity
UO-31 = test: Growth inhibition of human UO31 cells assessed as cell growth at 5X10'-7 M after 48 hrs by sulforhodamine B assay; conditions: UO-31, 48 h, read-out: Activity
OVCAR-5 [14] = test: Growth inhibition of human OVCAR5 cells assessed as cell growth at 5X10'-8 M after 48 hrs by sulforhodamine B assay; conditions: OVCAR-5, 48 h, read-out: Activity
BT-549 = test: Growth inhibition of human BT549 cells assessed as cell growth at 5X10'-7 M after 48 hrs by sulforhodamine B assay; conditions: BT-549, 48 h, read-out: Activity
OVCAR-3 = test: Growth inhibition of human OVCAR3 cells assessed as cell growth at 5X10'-7 M after 48 hrs by sulforhodamine B assay; conditions: OVCAR-3, 48 h, read-out: Activity
T47D = test: Growth inhibition of human T47D cells assessed as cell growth at 5X10'-6 M after 48 hrs by sulforhodamine B assay; conditions: read-out: Activity
HOP-62 = test: Growth inhibition of human HOP62 cells assessed as cell growth at 5X10'-6 M after 48 hrs by sulforhodamine B assay; conditions: HOP-62, 48 h, read-out: Activity
NCI-H23 = test: Growth inhibition of human NCI-H23 cells assessed as cell growth at 5X10'-8 M after 48 hrs by sulforhodamine B assay; conditions: NCI-H23, 48 h, read-out: Activity
UACC-62 = test: Growth inhibition of human UACC62 cells assessed as cell growth at 5X10'-6 M after 48 hrs by sulforhodamine B assay; conditions: UACC-62, 48 h, read-out: Activity
OVCAR-5 [15] = test: Growth inhibition of human OVCAR5 cells assessed as cell growth at 5X10'-7 M after 48 hrs by sulforhodamine B assay; conditions: OVCAR-5, 48 h, read-out: Activity
SF-295 = test: Growth inhibition of human SF295 cells assessed as cell growth at 5X10'-8 M after 48 hrs by sulforhodamine B assay; conditions: SF-295, 48 h, read-out: Activity
[16] = Growth inhibition of human Hs 578T cells assessed as cell growth at 5X10'-5 M after 48 hrs by sulforhodamine B assay; conditions: read-out: Activity
SK-MEL-5 = test: Growth inhibition of human SK-MEL-5 cells assessed as cell growth at 5X10'-8 M after 48 hrs by sulforhodamine B assay; conditions: SK-MEL-5, 48 h, read-out: Activity

## COc1cc(-c2nn(-c3cccc(NC(=O)Nc4ccc(Cl)c(Cl)c4)c3)cc2-c2ccncc2)ccc1Cl
HL-60(TB) [1]
  growth at 0.5 µM: 98%
HOP-92 [2]
  growth at 50 µM: -39%
HL-60(TB) [3]
  growth at 0.05 µM: 114%
NCI-H322M [4]
  growth at 5 µM: 15%
NCI-H522
  growth at 0.005 µM: 101%
SK-OV-3
  growth at 0.05 µM: 106%
K562 [5]
  growth at 0.005 µM: 103%
A498 [6]
  growth at 5 µM: -3%
HOP-92 [7]
  growth at 0.05 µM: 64%
U-251
  growth at 5 µM: -32%
A498 [8]
  growth at 0.05 µM: 89%
HCT-116
  growth at 5 µM: 6%
K562 [9]
  growth at 5 µM: 5%
[10]
  growth at 0.05 µM: 94%
PC-3
  growth at 0.005 µM: 99%
M14
  growth at 50 µM: -52%
KM12
  growth at 5 µM: -24%
NCI-H322M [11]
  growth at 50 µM: 6%
NCI-H226
  growth at 0.05 µM: 92%
ACHN
  growth at 0.005 µM: 99%
SF-539
  growth at 0.5 µM: 78%
OVCAR-5 [12]
  growth at 5 µM: 27%
IGROV-1
  growth at 50 µM: -26%
SR
  growth at 0.05 µM: 105%
HOP-92 [13]
  growth at 0.5 µM: 35%
UO-31
  growth at 0.5 µM: 65%
OVCAR-5 [14]
  growth at 0.05 µM: 90%
BT-549
  growth at 0.5 µM: 97%
OVCAR-3
  growth at 0.5 µM: 64%
T47D
  growth at 5 µM: 9%
HOP-62
  growth at 5 µM: -1%
NCI-H23
  growth at 0.05 µM: 101%
UACC-62
  growth at 5 µM: -56%
OVCAR-5 [15]
  growth at 0.5 µM: 89%
SF-295
  growth at 0.05 µM: 88%
[16]
  growth at 50 µM: 4%
SK-MEL-5
  growth at 0.05 µM: 92%
